Experimental data published in patent publication US12564581B2, “Pyrazole pharmaceutical composition” (Intervet Inc., priority 2019, dated 2026).

Tests used:
[1] = Solubility of the compound in surfactant solutions; format: physicochemical
Description: To increase solubility of the compound and promote increase bioavailability, a number of surfactants were screened. The table below lists the solubilities of 1-[(3R,4S)-4-cyanotetrahydropyran-3-yl]-3-[(2-fluoro-6-methoxy-4-pyridyl)amino]pyrazole-4-carboxamide in the tested surfactant solutions.

[2] = tested on: cIL-31 induced pruritus; details: with respect to placebo; similar magnitude to oclacitinib (Apoquel); from WO 2018/108969; cited from earlier work

SMILES: COc1cc(Nc2nn([C@H]3COCC[C@@H]3C#N)cc2C(N)=O)cc(F)n1 [compound of Formula (I), 1-[(3R,4S)-4-cyanotetrahydropyran-3-yl]-3-[(2-fluoro-6-methoxy-4-pyridyl)amino]pyrazole-4-carboxamide]
- solubility ([1]; 1% polysorbate (Tween 80) solution, aqueous with cosolvent or surfactant or cyclodextrin, 1% polysorbate (Tween 80)): 50.3 µg/mL
- solubility ([1]; 1% sodium lauryl sulfate (SLS) solution, aqueous with cosolvent or surfactant or cyclodextrin, 1% sodium lauryl sulfate (SLS)): 195 µg/mL
- solubility ([1]; 10% ELP solution, aqueous with cosolvent or surfactant or cyclodextrin, 10% ELP): 541 µg/mL
- solubility ([1]; 10% P407 solution, aqueous with cosolvent or surfactant or cyclodextrin, 10% P407): 217 µg/mL
- solubility ([1]; 10% Poloxamer 124 solution, aqueous with cosolvent or surfactant or cyclodextrin, 10% Poloxamer 124): 108 µg/mL
- solubility ([1]; 10% Poloxamer 188 solution, aqueous with cosolvent or surfactant or cyclodextrin, 10% Poloxamer 188): 109 µg/mL
- solubility ([1]; 10% hydrogenated castor oil (RH40) solution, aqueous with cosolvent or surfactant or cyclodextrin, 10% hydrogenated castor oil (RH40)): 489 µg/mL
- solubility ([1]; 10% polyvinylpyrrolidone (PVP) solution, aqueous with cosolvent or surfactant or cyclodextrin, 10% polyvinylpyrrolidone (PVP)): 133 µg/mL
- solubility ([1]; 30% HS15 solution, aqueous with cosolvent or surfactant or cyclodextrin, 30% HS15): 1420 µg/mL
- solubility ([1]; Oleoyl macrogol-6 / polyoxyl-6 glycerides (Labrafil M1944CS), oil or lipid): 807 µg/mL
- solubility ([1]; aqueous with cosolvent or surfactant or cyclodextrin, 1% D-a-Tocopheryl polyethylene glycol 1000 succinate (TPGS)): 99 µg/mL
- solubility ([1]; aqueous with cosolvent or surfactant or cyclodextrin, 10% polyoxyethylated 12-hydroxystearic acid (Solutol HS 15)): 460 µg/mL
- Water solubility (in words) ([1]; water): poorly water soluble
- solubility ([1]; water): 8 µg/mL
- Suppression of pruritus [2]: significantly suppressed pruritus
